Residues, ends and D or L forms follow the SMILES beside them. No end group written: not given here.
How the values were obtained:
[1] = tested on: human red blood cells (RBC); assay: in vitro; type: cell-based; conditions: hemolytic assay, concentration at 50% hemolysis, 1 hour at 37° C.
[2] = tested on: WI38; conditions: MTT, 24 hours with peptide; for WI38 LD50: normal fibroblast line; for LD50 WI38: WI38 normal lung fibroblast line
[3] = tested on: Pseudomonas aeruginosa ATCC 9027; assay: Antimicrobial assay I, MIC by OD measurement; type: cell-based; conditions: 37° C. for 24 hours, absorbance 620 nm
[4] = tested on: Staphylococcus aureus ATCC 6538; assay: Antimicrobial assay I, MIC by OD measurement; type: cell-based; conditions: 37° C. for 24 hours, absorbance 620 nm
[5] = tested on: MCF7; assay: Anti-cancer assay, MTT, LD50; type: cell-based; conditions: MCF7 breast adenocarcinoma line, MTT, 24 hours with peptide
From the text: (§1) Numbers are LD50 values (μg/mL).

[6] = tested on: PC3; assay: Anti-cancer assay, MTT, LD50; type: cell-based; conditions: 24 hours with peptide, prostate adenocarcinoma
From the text: as §1

[7] = tested on: HeLaS3; assay: Anti-cancer assay, MTT, LD50; type: cell-based; conditions: 24 hours with peptide, cervical carcinoma
From the text: as §1

[8] = tested on: H1299; assay: Anti-cancer assay, MTT, LD50; type: cell-based; conditions: 24 hours with peptide, lung large cell carcinoma
From the text: as §1

[9] = tested on: SW480; assay: Anti-cancer assay, MTT, LD50; type: cell-based; conditions: SW480 colon adenocarcinoma line, 24 hours with peptide
From the text: as §1

[10] = tested on: BMKC; assay: Anti-cancer assay, MTT, LD50; type: cell-based; conditions: BMKC cloned melanoma line, 24 hours with peptide
From the text: as §1

[11] = tested on: yeast (Saccharomyces cerevisiae); assay: Antimicrobial assay I, yeast assay in RPMI 1640; type: cell-based; conditions: RPMI 1640 media

Molecule | LD50 [1] | WI38 LD50 [2] | LD50 WI38 [2] | paerug9027 (MIC) [3] [µg/mL] | staph6538 (MIC) [4] [µg/mL] | LD50 MCF7 [5] | PC3 LD50 [6] | HeLaS3 LD50 [7] | H1299 LD50 [8] | LD50 SW480 [9] | LD50 BMKC [10] | yeast (MIC or MFC) [11] [µg/mL]
CC(C)C[C@H](NC(=O)[C@H](C)NC(=O)[C@@H](N)Cc1ccccc1)C(=O)N[C@@H](C)C(N)=O [P183, FALA-NH2] (H-FALA-NH2; N-terminus assumed) | > (> indicates greater than 1000) | > (> indicates greater than 1000) | > (> indicates greater than 1000) | 100 | 200 | > (> indicates greater than 1000) | > (> indicates greater than 1000) | > (> indicates greater than 1000) | > (> indicates greater than 1000) | > (> indicates greater than 1000) | > (> indicates greater than 1000) | 200
FALAKKALKKAKKAL-NH2 [P40, FALAKKALKKAKKAL-NH2] | > (> indicates greater than 1000) | > (> indicates greater than 1000) | > (> indicates greater than 1000) | 25 | 100 | 760 µg/mL | 435 µg/mL | > (> indicates greater than 1000) | > (> indicates greater than 1000) | > (> indicates greater than 1000) | > (> indicates greater than 1000) | 100
FAKLLAKAFKKAL-NH2 [P114, FAKLLAKAFKKAL-NH2] | > (> indicates greater than 1000) | > (> indicates greater than 1000) | > (> indicates greater than 1000) | 15 | 50 | 730 µg/mL | > (> indicates greater than 1000) | > (> indicates greater than 1000) | > (> indicates greater than 1000) | > (> indicates greater than 1000) | > (> indicates greater than 1000) | 100
FALALKALKK-NH2 [P169] | > (> indicates greater than 1000) | > (> indicates greater than 1000) | > (> indicates greater than 1000) | 100 | 100 | 510 µg/mL | > (> indicates greater than 1000) | > (> indicates greater than 1000) | 640 µg/mL | > (> indicates greater than 1000) | 530 µg/mL | 100
KAKLAKKALAKLL-NH2 [P149] | > (> indicates greater than 1000) | > (> indicates greater than 1000) | > (> indicates greater than 1000) | 100 | 50 | > (> indicates greater than 1000) | > (> indicates greater than 1000) | > (> indicates greater than 1000) | > (> indicates greater than 1000) | > (> indicates greater than 1000) | > (> indicates greater than 1000) | 200
FAKKLAKLAKKL-NH2 [P106] | > (> indicates greater than 1000) | > (> indicates greater than 1000) | > (> indicates greater than 1000) | 25 | 100 | 620 µg/mL | > (> indicates greater than 1000) | 700 µg/mL | 920 µg/mL | 570 µg/mL | 690 µg/mL | 100

— patent US20050209157A1, “Short bioactive peptides and methods for their use” (priority 2001, published 2005)
